Legend:
Test in all cases: nitrocefin hydrolysis, absorbance at […] nm, sonicated lysate
Assay type in all cases: biochemical
Conditions in all cases: 0.4 mM nitrocefin, 100 mM sodium phosphate pH 7.0, 25 °C; dsbA+ E. coli
[1] = molecular target: T1, POM-1 (Metapseudomonas otitidis, UniProt E6Y3G9)
T1 construct: gene pom1; full-length class B3 metallo-beta-lactamase from pDM1-blaPOM-1 in E. coli MC1000, lysate; gene from clinical isolate

[2] = molecular target: T2, SMB-1 (Serratia marcescens, UniProt G5ELM3)
T2 construct: full-length class B3 metallo-beta-lactamase, synthetic gene in pDM1, E. coli MC1000 lysate

[3] = molecular target: T3, CARB-2 (Pseudomonas aeruginosa, UniProt Q03170)
T3 construct: gene pse1; full-length class A carbenicillinase, synthetic gene in pDM1, E. coli MC1000 lysate

[4] = molecular target: T4, BEL-1 (Pseudomonas aeruginosa, UniProt Q3SAW3)
T4 construct: gene bla(BEL1); full-length class A beta-lactamase from plasmid pDM1-blaBEL-1 in E. coli MC1000, sonicated lysate; gene from clinical isolate

[5] = molecular target: T5, OXA-50 (Pseudomonas aeruginosa, UniProt G3XCV9)
T5 construct: gene PA5514; full-length class D beta-lactamase from pDM1-blaOXA-50 in E. coli MC1000, lysate; gene from clinical isolate

[6] = molecular target: T6, AIM-1 (Pseudomonas aeruginosa, UniProt B5DCA0)
T6 construct: gene blaAIM-1; full-length class B3 metallo-beta-lactamase from pDM1-blaAIM-1 in E. coli MC1000, lysate; gene from clinical isolate
T6 sequence (B5DCA0 entry or part of it): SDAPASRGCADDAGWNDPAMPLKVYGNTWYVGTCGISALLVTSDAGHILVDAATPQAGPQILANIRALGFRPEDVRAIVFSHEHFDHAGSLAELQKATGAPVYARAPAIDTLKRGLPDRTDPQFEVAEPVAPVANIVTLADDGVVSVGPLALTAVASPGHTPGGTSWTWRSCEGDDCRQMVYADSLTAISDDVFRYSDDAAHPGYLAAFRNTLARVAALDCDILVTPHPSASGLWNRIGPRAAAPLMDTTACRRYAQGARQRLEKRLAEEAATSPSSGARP

T2 sequence (G5ELM3 entry or part of it): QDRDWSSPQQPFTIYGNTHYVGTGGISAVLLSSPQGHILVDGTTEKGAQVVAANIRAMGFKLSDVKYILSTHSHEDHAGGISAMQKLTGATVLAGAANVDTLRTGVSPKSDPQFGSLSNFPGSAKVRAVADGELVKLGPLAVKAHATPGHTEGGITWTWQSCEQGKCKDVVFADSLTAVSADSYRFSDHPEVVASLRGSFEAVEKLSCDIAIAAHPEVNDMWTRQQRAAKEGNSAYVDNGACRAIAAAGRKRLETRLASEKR
T4 sequence (Q3SAW3 entry or part of it): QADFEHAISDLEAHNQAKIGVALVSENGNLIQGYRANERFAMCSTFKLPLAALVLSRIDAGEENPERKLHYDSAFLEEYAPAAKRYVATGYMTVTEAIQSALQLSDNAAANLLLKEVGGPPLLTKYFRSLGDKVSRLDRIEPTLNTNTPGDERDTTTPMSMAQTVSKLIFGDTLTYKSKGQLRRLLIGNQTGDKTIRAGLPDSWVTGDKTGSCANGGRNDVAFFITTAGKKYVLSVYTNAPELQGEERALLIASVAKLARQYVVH
T3 sequence (Q03170 18-288): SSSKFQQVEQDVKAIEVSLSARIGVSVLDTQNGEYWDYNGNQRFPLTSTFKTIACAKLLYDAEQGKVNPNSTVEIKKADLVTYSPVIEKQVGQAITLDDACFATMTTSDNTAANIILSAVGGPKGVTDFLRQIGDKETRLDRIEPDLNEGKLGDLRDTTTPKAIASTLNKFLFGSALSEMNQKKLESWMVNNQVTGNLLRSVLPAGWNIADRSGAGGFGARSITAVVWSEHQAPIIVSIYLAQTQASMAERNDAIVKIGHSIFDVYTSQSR
T5 sequence (G3XCV9 entry or part of it): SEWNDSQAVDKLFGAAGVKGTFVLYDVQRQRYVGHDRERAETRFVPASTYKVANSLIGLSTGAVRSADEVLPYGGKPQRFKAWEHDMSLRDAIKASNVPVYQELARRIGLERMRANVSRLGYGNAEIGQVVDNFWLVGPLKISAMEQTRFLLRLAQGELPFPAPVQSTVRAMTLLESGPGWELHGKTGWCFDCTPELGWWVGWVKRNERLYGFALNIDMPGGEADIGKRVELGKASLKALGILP
T1 sequence (E6Y3G9 entry or part of it): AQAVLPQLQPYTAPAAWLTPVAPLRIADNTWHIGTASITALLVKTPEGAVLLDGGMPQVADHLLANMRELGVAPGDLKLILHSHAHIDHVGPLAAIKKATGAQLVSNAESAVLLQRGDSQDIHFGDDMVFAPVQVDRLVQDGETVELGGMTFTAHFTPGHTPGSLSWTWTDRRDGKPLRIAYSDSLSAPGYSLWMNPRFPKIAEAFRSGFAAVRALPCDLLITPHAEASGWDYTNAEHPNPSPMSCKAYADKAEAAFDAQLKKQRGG

O=C(Cc1cccs1)N[C@@H]1C(=O)N2C(C(=O)O)=C(/C=C/c3ccc([N+](=O)[O-])cc3[N+](=O)[O-])CS[C@H]12 [nitrocefin]
nitrocefin hydrolysis, absorbance at 490 nm, sonicated lysate [1]: The hydrolytic activities of both tested β-lactamases are significantly reduced in the absence of DsbA | nitrocefin hydrolysis, absorbance at 490 nm, sonicated lysate [2]: The hydrolytic activities of both tested β-lactamases are significantly reduced in the absence of DsbA | nitrocefin hydrolysis, absorbance at 490 nm, sonicated lysate [3]: The hydrolysis of the chromogenic β-lactam nitrocefin by cysteine-containing β-lactamases is impaired | nitrocefin hydrolysis, absorbance at 490 nm, sonicated lysate [4]: The hydrolysis of the chromogenic β-lactam nitrocefin by cysteine-containing β-lactamases is impaired | nitrocefin hydrolysis, absorbance at 490 nm, sonicated lysate [5]: The hydrolysis of the chromogenic β-lactam nitrocefin by cysteine-containing β-lactamases is impaired | nitrocefin hydrolysis, absorbance at 490 nm, sonicated lysate [6]: The hydrolysis of the chromogenic β-lactam nitrocefin by cysteine-containing β-lactamases is impaired

Source: publication PMC13099141, “Antibiotic potentiation and inhibition of cross-resistance in pathogens associated with cystic fibrosis” (eLife, 2026)
